According to patent US4661510A, “α-allenic-α-amino acids as enzyme inhibitors” (priority 1985, dated 1987):

Tests used:
[1] = target: T1, bacterial ornithine decarboxylase from E. Coli (Escherichia coli, UniProt P21169); assay: Inactivation of bacterial ornithine decarboxylase; type: biochemical; conditions: E. Coli enzyme
T1 construct: bacterial ornithine decarboxylase from E. Coli; host or cells: E. coli

[2] = target: T2, mammalian ornithine decarboxylase from rat liver (Rattus norvegicus, UniProt P09057); assay: Inactivation of mammalian ornithine decarboxylase; type: biochemical; conditions: rat liver enzyme
T2 construct: mammalian ornithine decarboxylase from rat liver; from tissue; host or cells: rat liver
T2 sequence (P09057 1-461): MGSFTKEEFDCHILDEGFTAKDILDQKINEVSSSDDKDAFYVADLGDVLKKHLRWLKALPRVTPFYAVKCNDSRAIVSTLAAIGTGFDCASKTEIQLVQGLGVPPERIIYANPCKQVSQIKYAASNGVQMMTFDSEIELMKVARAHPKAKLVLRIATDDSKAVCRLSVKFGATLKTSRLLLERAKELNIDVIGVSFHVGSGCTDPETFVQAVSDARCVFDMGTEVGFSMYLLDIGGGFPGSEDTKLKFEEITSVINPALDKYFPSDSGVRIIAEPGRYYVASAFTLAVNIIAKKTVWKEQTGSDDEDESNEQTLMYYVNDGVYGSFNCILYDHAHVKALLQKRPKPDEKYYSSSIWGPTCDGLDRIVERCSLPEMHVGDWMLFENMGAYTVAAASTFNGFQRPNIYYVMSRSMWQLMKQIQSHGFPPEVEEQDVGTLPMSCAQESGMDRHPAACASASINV

[3] = target: T3, bacterial tyrosine decarboxylase from Streptococcus faecallis (Enterococcus faecalis, UniProt Q838D6); assay: Time dependent inactivation of tyrosine decarboxylase; type: biochemical; conditions: Streptococcus faecallis enzyme
T3 construct: purchased from Sigma Chemical Co. as crude extracts; purchased Sigma Chemical Co; host or cells: Streptococcus faecalis, crude extract
T3 sequence (Q838D6 1-620): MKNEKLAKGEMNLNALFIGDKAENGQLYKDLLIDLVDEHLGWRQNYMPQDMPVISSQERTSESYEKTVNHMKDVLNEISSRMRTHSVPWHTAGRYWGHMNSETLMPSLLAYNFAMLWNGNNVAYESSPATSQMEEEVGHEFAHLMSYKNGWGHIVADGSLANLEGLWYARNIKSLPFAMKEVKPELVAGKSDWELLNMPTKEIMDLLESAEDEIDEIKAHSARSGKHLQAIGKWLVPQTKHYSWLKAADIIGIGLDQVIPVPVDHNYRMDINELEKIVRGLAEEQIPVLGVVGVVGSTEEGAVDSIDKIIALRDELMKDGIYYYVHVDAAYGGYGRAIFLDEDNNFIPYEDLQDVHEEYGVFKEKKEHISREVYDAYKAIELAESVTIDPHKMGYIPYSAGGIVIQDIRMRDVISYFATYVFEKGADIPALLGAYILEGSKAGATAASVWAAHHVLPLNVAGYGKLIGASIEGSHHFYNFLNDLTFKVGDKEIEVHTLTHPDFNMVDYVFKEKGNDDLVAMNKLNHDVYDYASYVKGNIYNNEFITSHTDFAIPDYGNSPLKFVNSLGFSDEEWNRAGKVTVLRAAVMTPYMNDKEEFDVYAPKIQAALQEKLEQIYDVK
Source text: (§1) Mammalian DOPA decarboxylase was isolated and purified from porcine kidney by the procedure of Borri-Voltatorni et al [Eur. J. Biochem., 93, 181 (1979)] with modifications as introduced by Rudd and Thanassi [Biochemistry, 20, 7469 (1981)]. Bacterial L-phenylalanine and L-tyrosine decarboxylases ex Streptococcus faecallis were purchased from Sigma Chemical Co. as crude extracts and studied without further purification.
(§2) The time dependent inactivation of bacterial aromatic amino acid decarboxylases with 200-1000 micromolar inhibitor, e.g. 2-amino-2-(4-hydroxybenzyl)-penta-3,4-dienoic acid or 2-amino-2-benzylpenta-3,4-dienoic acid, was monitored at pH 5.5 and 37° C. Residual activity of tyrosine decarboxylase ex Streptococcus faecallis was determined by measurement of p-tyramine production at pH 5.5 and 37° C. p-Tyramine was separated by HPLC and quantified by electrochemical oxidation at +0.7 volts.

[4] = target: T4, mammalian DOPA decarboxylase from porcine kidney (Sus scrofa, UniProt P80041); assay: Time dependent inactivation of DOPA decarboxylase; type: biochemical; conditions: porcine kidney enzyme
T4 construct: isolated and purified from porcine kidney; from tissue; host or cells: porcine kidney
T4 sequence (P80041 1-486): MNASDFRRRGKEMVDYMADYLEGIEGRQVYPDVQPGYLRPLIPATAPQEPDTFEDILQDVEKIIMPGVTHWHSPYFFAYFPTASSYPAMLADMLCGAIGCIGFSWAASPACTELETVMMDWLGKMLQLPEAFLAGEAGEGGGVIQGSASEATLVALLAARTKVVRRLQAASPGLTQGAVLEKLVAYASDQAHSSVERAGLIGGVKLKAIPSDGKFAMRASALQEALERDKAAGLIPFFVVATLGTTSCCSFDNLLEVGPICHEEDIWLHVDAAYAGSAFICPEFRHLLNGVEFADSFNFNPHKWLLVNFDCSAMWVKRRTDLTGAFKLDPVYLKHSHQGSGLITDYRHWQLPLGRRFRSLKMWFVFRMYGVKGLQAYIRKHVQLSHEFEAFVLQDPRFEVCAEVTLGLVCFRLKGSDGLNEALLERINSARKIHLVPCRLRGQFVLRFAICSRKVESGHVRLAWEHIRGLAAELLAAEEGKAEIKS
Source text: as §1
Time dependent inactivation of mammalian DOPA decarboxylase was monitored by incubation of enzyme with 4 to 100 molar equivalent excess of 2-amino-2-(3,4-dihydroxybenzyl)penta-3,4-dienoic acid at pH 6.8 and 37° C. At appropriate time intervals, aliquots of the mixture were withdrawn, diluted 30-fold into excess L-DOPA (2 mM) and residual DOPA decarboxylase activity determined.
DOPA decarboxylase activity was routinely measured by liquid chromatography and electrochemical detection of catecholamine products. DOPA decarboxylase (1-5 micrograms, 1-20 units) was incubated with L-DOPA (2000 micromolar, 150 microliters) and PLP (10 micromolar) in 0.1M phosphate at pH 6.8 and 37° C. After 1-10 minutes, the reaction was quenched with citric acid (2M, 25 microliters), diluted two-fold with distilled water and 10 microliter aliquots were analyzed by HPLC on a reverse phase Brownlee RP-18 column. Isocratic elution with pH 4.35 buffer [0.1M NaOAc ([…]), 0.1M citric acid (32% v/v) and methanol (15% v/v)] at a flow rate of 2.5 ml/min. afforded baseline resolution of dopamine (RT=2.8 min.) from L-DOPA (RT=1.9 min.).
Quantification of dopamine was accomplished by preoxidation of the catechol to the ortho quinone at +0.25 volts in the first analytical electrochemical cell, followed by the selective reduction of ortho quinone in the second analytical cell set at -0.25 volts. This configuration for the ESA electrochemical detector allowed highly sensitive and selective detection of catecholamines (less than 10 picomoles/injection).

[5] = target: T5, phenylalanine decarboxylase from Streptococcus faecallis (Enterococcus faecalis, UniProt Q838D6); assay: Time dependent inactivation of phenylalanine decarboxylase; type: biochemical; conditions: Streptococcus faecallis enzyme
T5 construct: L-phenylalanine substrate, phenylethylamine by GC
T5 sequence (Q838D6 1-620): T3 sequence (Q838D6 1-620)
Source text: as §1, §2
Residual activity of L-phenylalanine decarboxylase ex Streptococcus faecallis with L-phenylalanine (2 mM) as substrate was meaasured by gas chromatographic analysis of phenylethylamine production. Direct injection of enzymatic reaction mixture (1-5 microliters) onto a standard glass column packed with 10% Apiezon L on Chromosorb 80/100 deactivated with 2% KOH allowed separation of aromatic amine from the reaction mixture. FID detection quantified the rate of product formation.

[6] = system: Male Sim:(S.D.)fBR rats; assay: In vivo potentiation of L-DOPA induced behaviors; set-up: species or system rat; conditions: for Mean Behavior Score at 60 min.: score scale 0-6, before 200 mg/kg L-DOPA i.p.
Procedure: Male Sim:(S.D.)fBR rats weighing 180-335 g were used for these experiments. Groups of 5 rats were individually housed and received water, or various doses of either 2-amino-2-(3-hydroxybenzyl)penta-3,4-dienoic acid or 2-amino-2-(3,4-dihydroxybenzyl)penta-3,4-dienoic acid 30 l minutes before 200 mg/kg of L-DOPA, i.p. Beginning 15 minutes later, behavioral observations were made at 15 minutes intervals for 2 hours. Behavoir was scored as follows:
3=Alert with intermittent sniffing

[7] = Toxicity (acute, oral, mouse); type: in vivo; conditions: in vivo; acute, oral, mouse
Procedure: (§3) 2-amino-2-(3-hydroxybenzyl)penta-3,4-dienoic acid prepared in CMC vehicle was administered once daily to groups of 6 male mice at doses 0, 62.5, 125, 250, and 500 mg/kg. […] Therefore, the LD50 (acute, oral, mouse) for 2-amino-2-(3-hydroxybenzyl)penta-3,4-dienoic acid is greater than 500 mg/kg.

[8] = system: male mice; assay: Toxicity (acute, oral, mouse); type: in vivo; conditions: male mice; 62.5, 125, 250 and 500 mg/kg in CMC vehicle; observed for 21 days
Procedure: as §3

[9] = system: dermatophytes; assay: In vitro anti-microbial activity (dermatophytes); type: cell-based

T1 sequence (P21169 whole entry): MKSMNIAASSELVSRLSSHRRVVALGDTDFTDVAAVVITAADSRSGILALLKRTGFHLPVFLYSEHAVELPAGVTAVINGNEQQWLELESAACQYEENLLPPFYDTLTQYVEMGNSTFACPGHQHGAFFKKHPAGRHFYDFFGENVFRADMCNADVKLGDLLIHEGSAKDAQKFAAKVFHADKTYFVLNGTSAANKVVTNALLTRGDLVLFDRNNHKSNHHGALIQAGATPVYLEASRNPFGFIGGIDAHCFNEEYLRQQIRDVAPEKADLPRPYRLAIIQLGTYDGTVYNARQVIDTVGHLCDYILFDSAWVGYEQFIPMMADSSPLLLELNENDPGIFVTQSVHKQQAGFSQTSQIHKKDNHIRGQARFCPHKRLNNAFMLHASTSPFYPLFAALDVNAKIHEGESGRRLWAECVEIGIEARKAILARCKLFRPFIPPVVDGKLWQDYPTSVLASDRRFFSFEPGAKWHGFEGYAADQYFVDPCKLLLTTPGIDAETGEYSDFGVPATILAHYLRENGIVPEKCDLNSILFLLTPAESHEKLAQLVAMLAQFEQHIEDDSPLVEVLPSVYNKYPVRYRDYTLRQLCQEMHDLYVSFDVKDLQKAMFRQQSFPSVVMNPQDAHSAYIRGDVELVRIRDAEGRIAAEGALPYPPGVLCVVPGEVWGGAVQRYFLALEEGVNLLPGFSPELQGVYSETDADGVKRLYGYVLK

C=C=CC(N)(CCCN)C(=O)O (stereo not drawn) [2-amino-2-(3-amino-n-propyl)penta-3,4-dienoic acid]
irreversible inactivation of ornithine decarboxylase [1]: irreversible inactivators | irreversible inactivation of ornithine decarboxylase [2]: irreversible inactivators

C=C=CC(N)(Cc1cccc(O)c1)C(=O)O (stereo not drawn) [2-amino-2-(3-hydroxybenzyl)penta-3,4-dienoic acid]
irreversible inactivation of tyrosine decarboxylase [3]: irreversible inactivators | irreversible inactivation of DOPA decarboxylase [4]: irreversible inactivators | irreversible inactivation of phenylalanine decarboxylase [5]: irreversible inactivators | potentiation of the behaviors induced by L-DOPA ([6]; 3-30 mg/kg i.p. or 30-150 mg/kg s.c., 30 minutes before 200 mg/kg L-DOPA i.p.): potentiated the behaviors induced by L-DOPA | Mean Behavior Score at 60 min. ([6]; 3-30 mg/kg i.p.): 3.4 | potentiation of DOPA behaviors ([6]; 3 to 30 mg/kg i.p. or 30 to 150 mg/kg s.c.): potentiate DOPA behaviors | Mean Behavior Score at 60 min. ([6]; 30-150 mg/kg s.c.): 3.4 | LD50 at 504 h [7]: > 500 mg/kg | deaths [8]: no deaths

C=C=C(C)C(N)C(=O)O (stereo not drawn) [2-amino-3-methylpenta-3,4-dienoic acid]
activity in vitro against a spectrum of dermatophytes [9]: active
